In patent US12070447B2, “Parenteral liquid preparation comprising carbamate compound” (SK BIOPHARMACEUTICALS CO., LTD., priority 2016, dated 2024):
Converted amounts (≈) assume the structure as drawn. Read-outs that look alike come from different tables or passages of the source.

What was measured:
[1] = Saturation solubility according to the concentration of cyclodextrin derivative; type: physicochemical; conditions: for solubility at 6 h: aqueous with cosolvent or surfactant or cyclodextrin; for solubility at 6 h / solubility: thermodynamic from solid, water for injection, room temperature; for solubility: water for injection without cyclodextrin, water, 0 % W/V cyclodextrin derivative (Comparative Example, no cyclodextrin)
Protocol: 2-Hydroxypropyl-β-cyclodextrin (trade name: Cavitron) and sulfobutyl ether-β-cyclodextrin sodium salt (trade name: Captisol) as cyclodextrin compounds were each dissolved in water for injection at various concentrations as shown in Table 1. To this was added an excess amount of carbamic acid (R)-1-(2-chlorophenyl)-2-tetrazol-2-yl)ethyl ester, and the mixture was stirred at room temperature for 6 hours. The mixture was then filtered through a membrane filter to remove insolubles, and the amount of carbamic acid (R)-1-(2-chlorophenyl)-2-tetrazol-2-yl)ethyl ester in the filtrate was measured by high performance liquid chromatography, by which the saturation solubility was calculated. The column used in this experiment was a 75×4.6 mm, 3.5 μm C18 column, and the mobile phase was a mixed solution of 20% by volume of acetonitrile and 80% by volume of 10 mM phosphate buffer (pH 3.0). The flow rate was 2.0 mL/min, and detection was performed at 215 nm.
As a comparative example, the saturation solubility of carbamic acid (R)-1-(2-chlorophenyl)-2-tetrazol-2-yl)ethyl ester to which no cyclodextrin compound had been added was measured at room temperature.
The calculated saturation solubility values are shown in Table 1, and the same results are shown graphically in FIG. 1.

[2] = Saturation solubility according to pH change; type: physicochemical; conditions: for solubility at 12 h: thermodynamic from solid
Protocol: The solubility of carbamic acid (R)-1-(2-chlorophenyl)-2-tetrazol-2-yl)ethyl ester in various aqueous (water) solvent conditions was measured: (1) purified water, (2) pH 1 hydrochloric acid solution, and (3) pH 3 to 8 phosphate buffer solution. Specifically, about 50 mg of carbamic acid (R)-1-(2-chlorophenyl)-2-tetrazol-2-yl)ethyl ester was placed in a suitable glass vial and 15 mL of solvent was added. The mixture was slowly stirred at room temperature for 12 hours on a rotary stirrer to reach equilibrium. Two samples for each aqueous solvent were transferred to a microtube, and centrifuged, and the pH was measured by taking the supernatant. After dilution with diluted solution for analysis, the concentration was analyzed using high performance liquid chromatography under the same conditions as in Experimental Example 1 above.

For NC(=O)O[C@@H](Cn1ncnn1)c1ccccc1Cl [carbamic acid (R)-1-(2-chlorophenyl)-2-tetrazol-2-yl)ethyl ester], the “Solubility when cyclodextrin compound was added, compared with comparative example without cyclodextrin” value ([1]; Cavitron or Captisol added, in words) was “significantly improved”, the solubility at 6 h ([1]; Captisol 10 % W/V) was 12800 µg/mL (≈ 47.8 mM) and the solubility at 6 h ([1]; Captisol 15 % W/V) was 18000 µg/mL (≈ 67.2 mM). It also gave a solubility at 6 h ([1]; Captisol 20 % W/V) of 24500 µg/mL (≈ 91.5 mM), a solubility at 6 h ([1]; Captisol 30 % W/V) of 32500 µg/mL (≈ 121 mM) and a solubility at 6 h ([1]; Captisol 40 % W/V) of 45100 µg/mL (≈ 168 mM). It also gave a solubility at 6 h ([1]; Captisol (sulfobutyl ether-β-cyclodextrin sodium salt) 5 % W/V) of 6700 µg/mL, a solubility at 6 h ([1]; Cavitron 10 % W/V) of 13200 µg/mL (≈ 49.3 mM) and a solubility at 6 h ([1]; Cavitron 15 % W/V) of 19800 µg/mL (≈ 74 mM). The solubility at 6 h ([1]; Cavitron 20 % W/V) was 27900 µg/mL (≈ 104 mM), the solubility at 6 h ([1]; Cavitron 30 % W/V) was 38600 µg/mL (≈ 144 mM) and the solubility at 6 h ([1]; Cavitron 40 % W/V) was 49500 µg/mL (≈ 185 mM). For the same molecule, the solubility at 6 h ([1]; Cavitron (2-hydroxypropyl-β-cyclodextrin) 5 % W/V) was 5500 µg/mL (≈ 20.5 mM), the solubility ([1]; Captisol column) was 1800 µg/mL (≈ 6.72 mM) and the solubility ([1]; Cavitron column) was 1800 µg/mL (≈ 6.72 mM). The solubility at 12 h ([2]; pH 1 hydrochloric acid solution, pH 1, simulated gastric fluid, pH 1 hydrochloric acid solution, room temperature, read-out: Concentration (saturation solubility), Mean) was 1950 µg/mL (≈ 7.28 mM), the solubility at 12 h ([2]; pH 1 hydrochloric acid solution, pH 1, simulated gastric fluid, pH 1 hydrochloric acid solution, room temperature, read-out: Concentration (saturation solubility), Test solution 1) was 1940 µg/mL (≈ 7.25 mM) and the solubility at 12 h ([2]; pH 1 hydrochloric acid solution, pH 1, simulated gastric fluid, pH 1 hydrochloric acid solution, room temperature, read-out: Concentration (saturation solubility), Test solution 2) was 1970 µg/mL (≈ 7.36 mM). The “Effect of change in pH on solubility” value ([2]; pH 1 to 8 aqueous solvents, in words) was “not greatly affected by the change in pH”, the solubility at 12 h ([2]; pH 3.0 phosphate buffer solution, pH 3, aqueous buffer, pH 3.0 phosphate buffer solution, final pH 3.1, room temperature, read-out: Concentration (saturation solubility), Mean) was 1870 µg/mL (≈ 6.99 mM) and the solubility at 12 h ([2]; pH 3.0 phosphate buffer solution, pH 3, aqueous buffer, pH 3.0 phosphate buffer solution, final pH 3.1, room temperature, read-out: Concentration (saturation solubility), Test solution 1) was 1870 µg/mL (≈ 6.99 mM). The solubility at 12 h ([2]; pH 3.0 phosphate buffer solution, pH 3, aqueous buffer, pH 3.0 phosphate buffer solution, final pH 3.1, room temperature, read-out: Concentration (saturation solubility), Test solution 2) was 1860 µg/mL (≈ 6.95 mM), the solubility at 12 h ([2]; pH 5.0 phosphate buffer solution, pH 5, aqueous buffer, pH 5.0 phosphate buffer solution, final pH 5.0, room temperature, read-out: Concentration (saturation solubility), Mean) was 1910 µg/mL (≈ 7.14 mM) and the solubility at 12 h ([2]; pH 5.0 phosphate buffer solution, pH 5, aqueous buffer, pH 5.0 phosphate buffer solution, final pH 5.0, room temperature, read-out: Concentration (saturation solubility), Test solution 1) was 1910 µg/mL (≈ 7.14 mM). The solubility at 12 h ([2]; pH 5.0 phosphate buffer solution, pH 5, aqueous buffer, pH 5.0 phosphate buffer solution, final pH 5.0, room temperature, read-out: Concentration (saturation solubility), Test solution 2) was 1910 µg/mL (≈ 7.14 mM), the solubility at 12 h ([2]; pH 6.5 phosphate buffer solution, pH 6.5, aqueous buffer, pH 6.5 phosphate buffer solution, final pH 6.6, room temperature, read-out: Concentration (saturation solubility), Mean) was 1860 µg/mL (≈ 6.95 mM) and the solubility at 12 h ([2]; pH 6.5 phosphate buffer solution, pH 6.5, aqueous buffer, pH 6.5 phosphate buffer solution, final pH 6.6, room temperature, read-out: Concentration (saturation solubility), Test solution 1) was 1860 µg/mL (≈ 6.95 mM). For the same molecule, the solubility at 12 h ([2]; pH 6.5 phosphate buffer solution, pH 6.5, aqueous buffer, pH 6.5 phosphate buffer solution, final pH 6.6, room temperature, read-out: Concentration (saturation solubility), Test solution 2) was 1860 µg/mL (≈ 6.95 mM), the solubility at 12 h ([2]; pH 8.0 phosphate buffer solution, pH 8, aqueous buffer, pH 8.0 phosphate buffer solution, final pH 8.0, room temperature, read-out: Concentration (saturation solubility), Mean) was 1810 µg/mL (≈ 6.76 mM) and the solubility at 12 h ([2]; pH 8.0 phosphate buffer solution, pH 8, aqueous buffer, pH 8.0 phosphate buffer solution, final pH 8.0, room temperature, read-out: Concentration (saturation solubility), Test solution 1) was 1800 µg/mL (≈ 6.72 mM). For the same molecule, the solubility at 12 h ([2]; pH 8.0 phosphate buffer solution, pH 8, aqueous buffer, pH 8.0 phosphate buffer solution, final pH 8.0, room temperature, read-out: Concentration (saturation solubility), Test solution 2) was 1820 µg/mL (≈ 6.8 mM), the solubility at 12 h ([2]; purified water, pH 6.2, water, Purified water, final pH 6.2, room temperature, read-out: Concentration (saturation solubility), Mean) was 1800 µg/mL (≈ 6.72 mM) and the solubility at 12 h ([2]; purified water, pH 6.2, water, Purified water, final pH 6.2, room temperature, read-out: Concentration (saturation solubility), Test solution 1) was 1800 µg/mL (≈ 6.72 mM). The solubility at 12 h ([2]; purified water, pH 6.2, water, Purified water, final pH 6.2, room temperature, read-out: Concentration (saturation solubility), Test solution 2) was 1810 µg/mL (≈ 6.76 mM).
